Assay results taken from US8637462B2, “Methods for reducing platelet counts and/or platelet adhesion by administering a GC-B receptor agonist” (Mayo Foundation for Medical Education and Research, priority 2011, dated 2014).
“Also recorded” adds a separate entry of the source.

How the values were obtained:
actin = test: Platelet spreading assay, actin staining; format: cell-based; conditions: FIG. 10
Method: (§1) The following was performed to determine if CNP could affect cytoskeletal proteins such as tubulin and/or actin. To delineate this function of CNP, human platelets were either treated with the Lbab polypeptide or CNP and were placed on slides using cytospin Immunocytochemistry was performed with anti-tubulin or anti-actin antibodies.
(§2) To confirm these findings, tubulin and actin also were stained on platelets that were viable and functionally active using a spreading assay.

tubulin [1] = test: Platelet spreading assay, tubulin staining; format: cell-based; conditions: FIG. 10
Description: as §2

tubulin [2] = test: Tubulin polymerization assay; format: biochemical; conditions: nucleation, growth and steady state phases; FIG. 11
Method: To demarcate whether the effects of CNP on microtubules was direct or indirect, a microtubule polymerization assay from cytoskeleton was utilized as per manufacturer's protocol. The assay studied all three phases of microtubule formation, namely nucleation, growth, and steady state equilibrium.
A 96-well plate was warmed in the incubator to 37° C. for 10 minutes. During this time, 10× stock solutions of compounds to be tested were prepared. 5 μL of control buffer, 5 μL of the 10× paclitaxel stock, and 5 μL of the 10× test compound were added to their respective wells. Next, the 96 well plate was placed back into warm plate reader for 1 minute. Finally, 50 μL of the tubulin reaction mix was added to each of the wells as quickly as possible, and the plate reader was started.

platelets [3] = test: Platelet adhesion to collagen; format: cell-based, human or C57B1/6 mice; conditions: for number of platelets adhered to collagen: n=5; for platelet adhesion to collagen (in words): FIG. 7; for pseudopodia formation of platelets adhered to collagen: light microscopy
Method: (§3) The role of CNP on platelet aggregation and platelet adhesion to fibrinogen, fibronectin, and collagen were assessed. Human platelets or platelets from C57B1/6 mice were isolated and treated with either CNP or the Lbab polypeptide for 30 minutes at 37° C. with 5% CO2. Following treatment, the platelets were gently added to cover slips pre-blocked with 1% BSA and pre-coated with fibrinogen, fibronectin, or collagen (50 μg/mL, CHRONOLOG Corp., Havertown, Pa.). Ca^+2 and Mg^+2 were added to 1 mM and 2 mM, respectively, before incubation at 37° C. for 30 minutes. The platelets were then fixed and permeabilized before staining with TRITC Phalloidin (0.5 μg/mL; Sigma) for an hour. The platelets were then gently washed a couple of times with PBS and mounted in Vectashield mounting medium (Vector laboratories, Burlingame, Calif.) and sealed with nail polish as described elsewhere (Moraes et al., J. Thromb. Haemost., 8(11):2530-41 (2010); and Bougie et al., Blood, 116(16):3033-8 (2010)). Images were acquired from five consecutive fields using a Zeiss Axioscop microscope (Carl Zeiss, Oberkochen, Germany) with a Zeiss 100× oil-immersion lens. The images were analyzed using ImageJ software.
Platelets were isolated and treated with either CNP or the mutant Lbab polypeptide for 30 minutes at 37° C. with 5% CO2. Following treatment, the platelets were gently added to cover slips pre-blocked with 1% BSA and pre-coated with collagen ([…], CHRONOLOG-corporation). Ca^+2 and Mg^+2 were added to 1 mM and 2 mM, respectively, before incubation at 37° C. for 30 minutes. The platelets were then fixed and permeabilized before staining with TRITC Phalloidin (0.5 μg/mL; Sigma) for an hour. The platelets were then gently washed a couple of times with PBS and then mounted in Vectashield mounting medium (Vector laboratories, Burlingame, Calif.) and sealed with nail polish. Images were acquired from five consecutive fields using Zeiss Axioscop microscope (Carl Zeiss, Oberkochen, Germany) with a Zeiss 100× oil-immersion lens and analyzed using ImageJ software.
Cells were placed in Trump's fixative, 4% formaldehyde: 1% glutaraldehyde for 1 hour or longer at 4° C. After two rinses in 0.1 M sodium phosphate buffer (pH 7.2), samples were dehydrated in a graded ethanol series to 100% ethanol at which time they were critical point dried with liquid carbon dioxide. They were then mounted on specimen stubs, sputter-coated with gold-palladium, and examined with a Hitachi S4700 scanning electron microscope.

[4] = tested on: GC-B present on megakaryocytes; test: cGMP production in megakaryocytes (BIOTRAK cGMP enzyme immunoassay); format: cell-based, mouse; conditions: 30 minutes at 37° C.; FIG. 3
Chain of GC-B present on megakaryocytes (Q6VVW5 23-1047 limits assumed): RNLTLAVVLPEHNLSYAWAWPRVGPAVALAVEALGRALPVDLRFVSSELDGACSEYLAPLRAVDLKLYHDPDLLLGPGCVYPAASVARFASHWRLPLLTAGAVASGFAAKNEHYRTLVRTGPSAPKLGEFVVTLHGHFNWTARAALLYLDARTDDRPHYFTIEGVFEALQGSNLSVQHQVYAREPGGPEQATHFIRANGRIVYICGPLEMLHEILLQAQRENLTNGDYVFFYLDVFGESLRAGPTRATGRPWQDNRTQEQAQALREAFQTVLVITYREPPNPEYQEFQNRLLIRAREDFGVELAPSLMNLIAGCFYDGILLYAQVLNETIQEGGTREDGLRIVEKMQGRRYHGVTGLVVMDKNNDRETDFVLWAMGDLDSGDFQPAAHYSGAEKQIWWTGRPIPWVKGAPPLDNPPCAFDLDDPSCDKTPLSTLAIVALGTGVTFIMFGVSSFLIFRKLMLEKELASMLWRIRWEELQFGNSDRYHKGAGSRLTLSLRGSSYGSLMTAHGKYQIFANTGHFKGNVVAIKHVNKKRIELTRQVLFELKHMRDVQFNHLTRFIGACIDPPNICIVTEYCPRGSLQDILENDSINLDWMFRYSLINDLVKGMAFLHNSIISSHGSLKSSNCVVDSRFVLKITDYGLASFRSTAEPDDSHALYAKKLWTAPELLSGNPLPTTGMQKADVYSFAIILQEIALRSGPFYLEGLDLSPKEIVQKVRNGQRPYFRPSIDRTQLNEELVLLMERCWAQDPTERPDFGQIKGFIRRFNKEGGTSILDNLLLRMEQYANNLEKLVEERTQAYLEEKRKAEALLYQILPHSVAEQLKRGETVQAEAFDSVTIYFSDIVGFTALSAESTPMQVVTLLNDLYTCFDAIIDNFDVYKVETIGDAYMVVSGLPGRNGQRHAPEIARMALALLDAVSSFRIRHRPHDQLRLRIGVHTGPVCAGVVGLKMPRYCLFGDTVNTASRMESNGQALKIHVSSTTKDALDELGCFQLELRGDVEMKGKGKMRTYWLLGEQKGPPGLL
Description: Primary hematopoietic progenitor cells were isolated from mouse fetal livers of E13.5 embryos (C57B1/6) or from femurs and tibias of C57B1/6 mice using the EasySep negative selection mouse hematopoietic progenitor enrichment kit (Stem Cell Technologies, Vancouver, BC). The progenitor cells were then expanded for two days in serum free expansion media containing 50% RPMI using standard techniques to generate megakaryocytes (Huang et al., J. Clin. Invest., 117(12):3890-9 (2007) and Muntean and Crispino, Blood, 106(4):1223-31 (2005)). The purity of the megakaryocytes was assessed using acetylcholinesterase (AchE) staining using standard protocols and FACS with CD41 (Emfret Analytics).
The following was performed to determine if GC-B present on megakaryocytes is functional and responsive to CNP. Megakaryocytes were treated with either CNP or a single residue mutant CNP designated Lbab for 30 minutes at 37° C. with 5% CO2 in IMDM media supplemented with 1% Nutridoma, penicillin, streptomycin, L-glutamine, and recombinant TPO. The Lbab polypeptide (FIG. 2) is described elsewhere (Yoder et al., Peptides, 29(9):1575-81 (2008)).
After the incubation, the cells were lysed, and the amount of cGMP was measured using a BIOTRAK cGMP enzyme immunoassay system Kit (GE Healthcare Bio-Sciences Corp.).

tubulin [5] = test: Immunocytochemistry of tubulin in platelets (cytospin); format: cell-based; conditions: human platelets; FIG. 9
Method: as §1
PRP was spun down in a cytospin at 1000 rpm for 2 minutes to obtain slides of mouse/human platelets. These slides were fixed and blocked with 10% normal goat serum and incubated with mouse anti-tubulin antibody at 1:700 (Sigma) in PBS. Goat anti-mouse Alexa Fluor 594 at 1:500 (Molecular Probes) was used to visualize the tubulin. Matched negative controls also were used.

platelets [6] = test: Platelet adhesion to fibrinogen; format: cell-based, human or C57B1/6 mice; conditions: CNP-treated vs Lbab polypeptide-treated
Method: as §3

platelets [7] = test: cGMP production in washed platelets; format: cell-based, mouse; conditions: 30 minutes at 37° C. in Tyrode's buffer with 1 mM Ca+2; FIG. 6
Method: Platelet isolation was adapted from studies described elsewhere (Boylan et al., Blood, 108(3):908-14 (2006); Moraes et al., J. Thromb. Haemost., 8(11):2530-41 (2010); and Bougie et al., Blood, 116(16):3033-8 (2010)). Briefly, C57BL/6 mice were anesthetized with ketamine/xylazine. Blood was obtained from the vena cava and collected into 3.8% sodium citrate. The whole blood was then diluted with equal volumes of Tyrode's buffer containing PGE1 (50 ng/mL), glucose (1 mg/mL), and BSA (2.5 mg/mL) before being spun at 280×g to obtain platelet rich plasma (PRP). The upper […] of the PRP was collected and spun for 10 minutes to collect the platelets. The platelets were then washed with Tyrode's buffer before any analysis was performed. The platelets were counted, visualized by microscopy, and then used for FACS analysis, immunostaining, and western blotting. CD41, CD42D, and GC-B expression was detected by FACS (FIG. 5, middle panel).
The effect of CNP on cGMP production in platelets was studied. Washed platelets were treated with CNP or the mutant Lbab polypeptide for 30 minutes at 37° C. with 5% CO2 in Tyrode's buffer with 1 mM Ca^+2. After the incubation, the cells were lysed, and the amount of cGMP was calculated according to the standard curve that was generated from parallel reactions within the same experiment.

megakaryocytes = test: Megakaryocyte colony formation assay (MegaCult-C); format: cell-based, mouse; conditions: bone marrow cells, 6 to 8 days; FIG. 4
Method: To determine the effect of CNP on the colony forming ability of megakaryocytes, colony formation assays were conducted using MegaCult®-C (StemCell Tech) as per the manufacturer's protocol. Mice were euthanized, and bone marrow was collected from femurs and tibias by flushing the bones multiple times with IMDM. Once a single cell suspension was achieved, the cells were added to MegaCult®-C medium containing cytokines and collagen. The cell suspension was then dispensed into the chamber slide at the concentration of 20,000 cells/well and incubated at 37° C. with 5% CO2 and >95% humidity for 6 to 8 days. The cells were then dehydrated and fixed with acetone followed by acetylcholinesterase staining. The colonies were scored using a 5× objective, and 10× objective was used to examine colonies in greater detail.

platelets [8] = test: Platelet aggregation (lumi-aggregometer); format: cell-based; conditions: data not shown
Method: The role of CNP on platelet aggregation and platelet adhesion to fibrinogen, fibronectin, and collagen were assessed. Human platelets or platelets from C57B1/6 mice were isolated and treated with either CNP or the Lbab polypeptide for 30 minutes at 37° C. with 5% CO2. Following treatment, the platelets were gently added to cover slips pre-blocked with 1% BSA and pre-coated with fibrinogen, fibronectin, or collagen (50 μg/mL, CHRONOLOG Corp., Havertown, Pa.). Ca^+2 and Mg^+2 were added to 1 mM and 2 mM, respectively, before incubation at 37° C. for 30 minutes. The platelets were then fixed and permeabilized before staining with TRITC Phalloidin (0.5 μg/mL; Sigma) for an hour. […] The images were analyzed using ImageJ software.
Platelet aggregation was performed at 37° C. in lumi-aggregometer in the presence of luciferin-luciferase to simultaneously measure light transmission and secretion of dense granule-derived ATP. […] Platelet aggregation and secretion was measured in a lumi-aggregometer (Chrono-Log, Havertown, Pa.) for 1 minute following which the polypeptide (CNP or Lbab) was added to the platelets, and aggregation and secretion were measured once again for 2 minutes in order to determine if the polypeptide itself activates the platelets. […] Aggregation and secretion were measured for 15 minutes.

platelets [9] = test: Platelet adhesion to fibronectin; format: cell-based, human or C57B1/6 mice; conditions: CNP-treated vs Lbab polypeptide-treated
Method: as §3

CC(=O)O[C@H]1C(=O)[C@@]2(C)[C@H]([C@H](OC(=O)c3ccccc3)[C@]3(O)C[C@H](OC(=O)[C@H](O)[C@@H](NC(=O)c4ccccc4)c4ccccc4)C(C)=C1C3(C)C)[C@]1(OC(C)=O)CO[C@@H]1C[C@@H]2O [Taxol, paclitaxel, reference compound]
actin distribution / function in spreading platelets (actin): minimal effect on actin distribution | tubulin distribution in spreading platelets (tubulin [1]): inhibits tubulin distribution in spreading platelets | tubulin polymerization (O.D.) (tubulin [2]): effects on the growth and steady state phases of tubulin polymerization

Lbab: single residue mutant CNP (SEQ ID NO:2) with Arg to Gly substitution, used as control polypeptide (GLSKGCFGLKLDGIGSMSGLGC; Mutant CNP; listed as Homo sapiens) [reference compound]
number of platelets adhered to collagen (platelets [3]; 500 nM): 4536±43 | number of platelets adhered to collagen (platelets [3]; 1000 nM): 4390±24 | platelet adhesion to collagen (in words) (platelets [3]): near normal platelet adhesion to collagen | pseudopodia formation of platelets adhered to collagen (platelets [3]): normal sprouting of pseudopodia | cGMP production by megakaryocytes [4]: but not the Lbab polypeptide, stimulated cGMP production | tubulin distribution in spreading platelets (tubulin [1]): does not demonstrate such an affect | marginal band formation (tubulin) within platelets (tubulin [5]): capable of forming clear marginal bands

c-type natriuretic peptide [CNP]
number of platelets adhered to collagen (platelets [3]; 500 nM): 2451±39 | number of platelets adhered to collagen (platelets [3]; 1000 nM): 1712±20 | platelet adhesion to collagen (in words) (platelets [3]): attenuated platelet adhesion to collagen | filopodia of platelets in the presence of collagen (platelets [3]; electron microscopy, varying concentrations, FIG. 8): aberrant filopodia | pseudopodia formation of platelets adhered to collagen (platelets [3]): abnormal pseudopodia formation | adhesion of platelets to fibrinogen (platelets [6]): no significant difference | cGMP production in platelets (platelets [7]): did not affect cGMP levels | actin distribution / function in spreading platelets (actin): minimal effect on actin distribution; also recorded: does not influence actin function significantly | megakaryocyte colony formation (megakaryocytes): inhibited colony formation | megakaryocyte colony size (megakaryocytes): significantly affected colony size | cGMP production by megakaryocytes [4]: stimulated a dose-dependent increase in cGMP formation | platelet aggregation (platelets [8]): unaffected | tubulin distribution in spreading platelets (tubulin [1]): inhibits tubulin distribution in spreading platelets | tubulin polymerization (O.D.) (tubulin [2]): has effects on the growth and steady state phases of tubulin polymerization | adhesion of platelets to fibronectin (platelets [9]): no significant difference | marginal band formation (tubulin) within platelets (tubulin [5]): decreased marginal band formation
